Data on twelve compounds can be found in ChEMBL document CHEMBL1201862, “PubChem BioAssay data set” (2004).

Assay in all cases: NCI-60 cell line screen, 48 h
Test [1] has as its system HL-60.
Test [2] has as its system UACC-257.
In test [3] the test system is NCI-H522.
Test [4] relates to CCRF-CEM.
The test system of test [5] is HOP-62.
Test [6] has as its system K562.
Test [7] concerns UACC-62.
Test [8] relates to HCT-15.
Test [9] concerns COLO 205.
Test [10] has as its system RPMI-8226.
The subject of test [11] is SK-MEL-28.
The subject of test [12] is SR.
Test [13] concerns RXF 393.
Test [14] has as its system SF-539.
Test [15] relates to Malme-3M.
Test [16] deals with 786-0.
Test [17] deals with TK-10.
In test [18] the test system is SK-OV-3.

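Exposure lasted 48 hours, with cells grown in 96-well plates and compounds tested at five concentrations. GI50: concentration for 50% inhibition of growth.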 Activity calls are given as the source filed them. Rule as the data show it: active = GI50 up to about 1.1 µM and inactive = higher.

Regarding `COc1ccc(-c2onc(-c3ccc([N+](=O)[O-])cc3)c2C2=NCCCN2)cc1`, the GI50 is 36.9 µM (inactive) in test [1]; 87.7 µM (inactive) in [2]; 51.3 µM (inactive) in test [3]; > 100 µM (inactive) in [4]; > 100 µM (inactive) in test [5]; 70.3 µM (inactive) in [6]. The GI50 in test [7] was > 100 µM (inactive); in test [8], > 100 µM; in test [9], 43.6 µM (inactive); in test [10] it was > 100 µM (inactive); in [11] it was 38.4 µM (inactive); in test [12] it was 45.4 µM (inactive). Besides, the GI50 in test [13] was 88.1 µM (inactive); in test [14] it was > 100 µM (inactive); in test [15], > 100 µM (inactive); in test [16] it was > 100 µM (inactive).

`Cc1cc2nc3c(=O)n(C)c(=O)nc-3n(-c3ccc(Cl)cc3)c2cc1C`: the GI50 was 3.34 µM (inactive) in [1]; 6.75 µM (inactive) in test [2]; > 10 µM (inactive) in test [3]; 13.6 µM (inactive) in test [4]; 31.9 µM (inactive) in test [17]; 24.4 µM (inactive) in [5]. Besides, the GI50 in test [6] is 12.8 µM (inactive); in test [7], 2.91 µM (inactive); in test [8], 3.68 µM; in [9], 2.24 µM (inactive); in test [10] it was 6.37 µM (inactive); in [11], 15.2 µM (inactive). Moreover, the GI50 in test [14] was 11.2 µM (inactive); in test [15], 10 µM (inactive); in test [16], 16.1 µM (inactive); in test [18] it was 25.6 µM (inactive).

For the compound `CCOC(=O)c1sc(Nc2cc(Cl)ccc2Cl)nc1C`, the GI50 in test [1] is > 100 µM (inactive); in test [2] it was 81.8 µM (inactive); in test [3], > 100 µM (inactive); in test [17] it was > 100 µM (inactive); in test [5], > 100 µM (inactive); in test [6], 42.9 µM (inactive). Besides, the GI50 is 67.8 µM in test [8]; > 100 µM (inactive) in test [9]; 53.2 µM (inactive) in test [10]; > 100 µM (inactive) in test [11]; 52.5 µM (inactive) in [12]; > 100 µM (inactive) in test [13]. Further, the GI50 in [14], in [15] and in test [16] was > 100 µM (inactive) throughout.

For `Cc1ccc(C)c(N2C(=O)C(=O)C(c3nc4ccccc4o3)/C(=N\NC(=O)c3ccccc3O)C2=O)c1` (centres undefined), the GI50 in test [1] was < 0.01 µM (active); in test [2] it was 23 µM (inactive); in test [3] it was 17.5 µM (inactive); in test [4] it was 4.09 µM (inactive); in test [17], 44 µM (inactive); in [5] it was 24.9 µM (inactive). The GI50 was 16.4 µM (inactive) in [6]; 5.68 µM (inactive) in test [7]; 18 µM in test [8]; 24.2 µM (inactive) in test [9]; 37.6 µM (inactive) in test [10]; > 100 µM (inactive) in [11]. For the same compound, the GI50 was 30.1 µM (inactive) in test [12]; 19.1 µM (inactive) in test [14]; 66.1 µM (inactive) in [15]; 27.4 µM (inactive) in test [16]; 87.1 µM (inactive) in [18].

Consider `Cc1cc(N(CCC#N)CCC#N)ccc1/C=C1/N=C(c2ccccc2)N(N)C1=O`, for which the GI50 in [1] was 27 µM (inactive); in test [2], > 100 µM (inactive); in [3], 26 µM (inactive); in [4], 61.7 µM (inactive); in test [17], 74.1 µM (inactive); in test [5], 31.9 µM (inactive). The GI50 in test [6] is 53.5 µM (inactive); in test [7] it was 99.8 µM (inactive); in test [8], > 100 µM; in test [9], > 100 µM (inactive); in test [10], > 100 µM (inactive); in test [11], > 100 µM (inactive). Further, the GI50 in test [14] is 60.8 µM (inactive); in test [15], > 100 µM (inactive); in test [16], 37.6 µM (inactive); in [18], > 100 µM (inactive).

On to `Cc1ccc([N+](=O)[O-])cc1NC(=O)C(=O)Cc1occc(=O)c1O`, for which the GI50 in test [1], in test [3], in [4], in [17], in test [5] and in test [6] was > 100 µM (inactive) each time. The GI50 in [7] is > 100 µM (inactive); in test [8] it was > 100 µM; in test [9], > 100 µM (inactive); in test [10] it was > 100 µM (inactive); in test [11], > 100 µM (inactive); in test [12] it was > 100 µM (inactive). In addition, the GI50 in test [13], in [14], in test [16] and in [18] was > 100 µM (inactive) in each case.

As to `CC(=O)c1cc([N+](=O)[O-])ccc1OCC(=O)O`, the GI50 in test [1], in test [2], in [3], in [4], in test [17] and in test [5] was > 100 µM (inactive) in each case. In addition, the GI50 in test [6] was > 100 µM (inactive); in test [7] it was > 100 µM (inactive); in test [8], > 100 µM; in test [9], > 100 µM (inactive); in [10] it was > 100 µM (inactive); in [11] it was > 100 µM (inactive). The GI50 in [13], in [14], in test [15], in test [16] and in [18] was > 100 µM (inactive) each time.

Regarding `CC(C)c1cccc2sc(NC(=O)C(=O)CC(=O)c3ccc(F)cc3)nc12`, the GI50 in test [1], in test [2], in test [3], in test [4], in [17] and in test [5] was > 100 µM (inactive) in each case. For the same compound, the GI50 was > 100 µM (inactive) in test [6]; > 100 µM (inactive) in test [7]; > 100 µM in test [8]; > 100 µM (inactive) in test [9]; > 100 µM (inactive) in test [10]; > 100 µM (inactive) in [11]. Besides, the GI50 in [13], in test [14], in test [15], in test [16] and in test [18] was > 100 µM (inactive) each time.

Take `CC1=C(C(=O)NCc2ccccc2)C(c2ccc(C3C(C(=O)NCc4ccccc4)=C(C)NC(C)=C3C(=O)NCc3ccccc3)cc2)C(C(=O)NCc2ccccc2)=C(C)N1`: the GI50 in test [1] is 6.27 µM (inactive); in test [2] it was 15 µM (inactive); in test [3], 3.41 µM (inactive); in [4], 3.39 µM (inactive); in [17], 20.7 µM (inactive); in test [5], 23.2 µM (inactive). Also, the GI50 in test [6] is 5.93 µM (inactive); in test [7], 7.91 µM (inactive); in test [8], 16.1 µM; in [9], 7.57 µM (inactive); in test [10], 6.65 µM (inactive); in test [11], 11.5 µM (inactive). Besides, the GI50 in [12] is 2.3 µM (inactive); in [13], 16.6 µM (inactive); in [14] it was 2.13 µM (inactive); in test [15] it was 14.4 µM (inactive); in [16] it was 15.6 µM (inactive).

As to `CC(Oc1ccc(OCC2CCCCC2)cc1)C(=O)N(CCO)CCO` (centres undefined), the GI50 in test [1], in test [2], in test [3], in test [4], in test [17] and in [6] was > 100 µM (inactive) in each case. The GI50 is > 100 µM (inactive) in test [7]; > 100 µM in [8]; > 100 µM (inactive) in test [11]; > 100 µM (inactive) in test [13]; 23.6 µM (inactive) in test [14]; > 100 µM (inactive) in [15]. Besides, the GI50 in test [16] and in [18] was > 100 µM (inactive) each time.

Take `Clc1ccc(C[P+](c2ccccc2)(c2ccccc2)c2ccccc2)cc1Cl`: the GI50 in [1] is 1.03 µM (active); in [2], 2.14 µM (inactive); in test [3] it was 1.89 µM (inactive); in test [4], 3.07 µM (inactive); in test [17], 5.05 µM (inactive); in test [5] it was 9.08 µM (inactive). The GI50 is 4.31 µM (inactive) in test [6]; 1.49 µM (inactive) in test [7]; 17 µM in [8]; 1.55 µM (inactive) in [9]; 3.67 µM (inactive) in [11]; 2.61 µM (inactive) in [12]. Further, the GI50 in test [14] was 4.4 µM (inactive); in test [15], 2.53 µM (inactive); in test [16], 4.85 µM (inactive); in test [18], 7.35 µM (inactive).

Consider `CC(C)(C)OC(=O)NC(Cc1ccccc1)C(=S)N1CCCC1` (centres undefined), for which the GI50 is 89.5 µM (inactive) in test [1]; 89.1 µM (inactive) in test [2]; 25 µM (inactive) in [3]; 69.2 µM (inactive) in test [4]; > 100 µM (inactive) in test [17]; 25.8 µM (inactive) in test [5]. In addition, the GI50 in test [6] is 78.3 µM (inactive); in test [7], > 80.4 µM (inactive); in test [8] it was 75.5 µM; in test [9], > 100 µM (inactive); in test [10] it was 31.1 µM (inactive); in test [11] it was > 100 µM (inactive). The GI50 in test [13] was 58.9 µM (inactive); in test [14], > 100 µM (inactive); in [15], > 100 µM (inactive); in test [16], > 100 µM (inactive); in [18], > 100 µM (inactive).
